Key:
skin = experiment: UVA sun protection factor (PF = protected MPD/non-protected MPD) on the back of volunteers; format: in vivo, human (healthy adults of both sexes); settings: for UVA skin protection (assessment in words): based on the UVA sun protection factors 1.6, 2.7 and 3.4; for UVA sun protection factor: 2±0.02 μl/cm^2, UVA 320-400 nm, read approximately 2 h after exposure
Method: Potentiation of the sun protection factor
The aim of the test is to show the ability of the compositions of the invention to protect the skin against UVA by virtue of a high UVA protection factor.
Ten individuals were tested. They were healthy adults of both sexes. An area of skin located on the back of each of the volunteers was subjected to solar exposure after defining the skin type. The exposure was carried out with a UVA spectrum alone (320 nm to 400 nm), supplied by a 150 W xenon lamp fitted with a WG 335 filter 3 mm in thickness and a UG 11 filter 1 mm in thickness. The UV radiation was conducted by 6 liquid, flexible light guides, making it possible to deliver doses of from 6 to 45 joules/cm^2 in a 50% geometric progression.
The application was a single dose, in the open air, of 2±0.02 μl/cm^2, i.e., approximately 0.15 ml of test product per individual, on an area of 75 cm^2, measured with a sterile 1 ml Tuberculin syringe graduated to 1/1000 and having a centered cone.
Exposure was approximately 15 min after application of the product. Macroscopic examination of the exposed areas of the skin was performed approximately 2 h after exposure, to evaluate the immediate and permanent pigmentation reactions. The minimum pigmenting dose on the area protected by the product applied (protected MPD) and that on the area in which no product had been applied (non-protected MPD) was performed simultaneously.
The protection factor PF is then calculated as follows:
PF=protected MPD/non-protected MPD
The test was carried out with 3 compositions, each having the same support, containing arbutin, the UV screening agent (terephthalylidene dicamphor sulphonic acid), and the combination of arbutin and the UV screening agent, respectively.

[1] = Anti-free-radical activity: inhibition of the production of ethylene from methionine under UVA; format: biochemical; settings: UVA 365 nm, 1 J/cm^2, pH 7.4, average of 3 tests
Method: The following were introduced in order into a Petri dish 32 mm in diameter:
1.4 ml of 50 mM phosphate buffer (pH=7.4), 100 μl of 200 mM methionine solution
100 μl of 4 mM ferric chloride solution,
100 μl of 4 mM EDTA (ethylenediaminetetraacetic acid) solution, 100 μl of 400 mM NADH (nicotinamideadeninedinucleotide, reduced form) solution, 100 μl of 2 mM riboflavin solution.
Total volume of the mixture: 2 ml.
The Petri dish was then placed in an aluminum crucible and covered with a quartz cell so as to be exposed to UVA rays (365 nm) at a dose of 1 J/cm^2. The mixture, composed of NADH, riboflavin, ferric chloride and EDTA, when subjected to exposure to the UVA rays, generates reduced oxygen species: O2 .cndot.^-, H2 O2, and mainly the hydroxyl radical .cndot.OH. The latter reacts with methionine to release ethylene. The amount of ethylene was measured by gas chromatography.
The smaller the amount of free radicals formed, the smaller the amount of ethylene released. The results are expressed as a percentage of inhibitory power corresponding to the percentage decrease in the production of ethylene relative to the control (containing 100 μl of phosphate buffer replacing the test product).
The following substances studied were introduced using a micropipette: […]
terephthalylidene dicamphor sulphonic acid […]

Compound: CC1(C)C2CCC1(CS(=O)(=O)O)C(=O)C2=Cc1ccc(C=C2C(=O)C3(CS(=O)(=O)O)CCC2C3(C)C)cc1 [benzene-1,4-bis(3-methylidenecamphor-10-sulphonic acid)]
- UVA skin protection (assessment in words) (skin): significant skin protection
- UVA sun protection factor (skin; composition with 1% terephthalylidene dicamphor sulphonic acid): 2.7
- % inhibition (percentage decrease in the production of ethylene relative to the control) ([1]; 0.2% terephthalylidene dicamphor sulphonic acid): 44.7 ± 1.7%

Compound: OC[C@H]1O[C@@H](Oc2ccc(O)cc2)[C@H](O)[C@@H](O)[C@@H]1O [arbutin, hydroquinone-beta-D-glucopyranoside]
- UVA skin protection (assessment in words) (skin): negligible skin protection
- UVA sun protection factor (skin; composition with 5% arbutin): 1.6
- % inhibition (percentage decrease in the production of ethylene relative to the control) ([1]; 0.2% arbutin): 39.0 ± 0.6%

— patent US5670487A, “Composition for protecting and/or combating blemishes on and/or ageing of the skin, and uses thereof” (L'Oreal, priority 1995, dated 1997)
